Test results as given in patent US20060148020A1, “Inhibitors of gst a3-3 and gst a1-1 for the treatment of cancer” (priority 2002, published 2006).
Where two headings read alike, the source gives them in different places.

What was measured:
GST A3-3 [1] = biological target: T1, GST A3-3 (Homo sapiens, UniProt Q16772); assay: biochemical
T1 sequence (Q16772 1-222): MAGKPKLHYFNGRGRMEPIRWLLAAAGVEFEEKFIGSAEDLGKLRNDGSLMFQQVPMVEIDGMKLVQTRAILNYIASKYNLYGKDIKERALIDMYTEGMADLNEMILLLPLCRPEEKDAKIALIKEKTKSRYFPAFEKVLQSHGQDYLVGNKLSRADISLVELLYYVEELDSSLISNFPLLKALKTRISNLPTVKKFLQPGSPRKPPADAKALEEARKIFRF

GST A1-1 [2] = biological target: T2, GST A1-1 (Homo sapiens, UniProt P08263); assay: biochemical
T2 sequence (P08263 1-222): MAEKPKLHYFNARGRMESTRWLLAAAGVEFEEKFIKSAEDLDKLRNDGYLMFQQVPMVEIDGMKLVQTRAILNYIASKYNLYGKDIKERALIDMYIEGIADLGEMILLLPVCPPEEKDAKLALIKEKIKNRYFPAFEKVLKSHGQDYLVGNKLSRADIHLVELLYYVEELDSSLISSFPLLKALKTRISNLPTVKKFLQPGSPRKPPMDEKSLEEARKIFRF

GST A2-2 [3] = biological target: T3, GST A2-2 (Homo sapiens, UniProt P09210); assay: biochemical
T3 sequence (P09210 1-222): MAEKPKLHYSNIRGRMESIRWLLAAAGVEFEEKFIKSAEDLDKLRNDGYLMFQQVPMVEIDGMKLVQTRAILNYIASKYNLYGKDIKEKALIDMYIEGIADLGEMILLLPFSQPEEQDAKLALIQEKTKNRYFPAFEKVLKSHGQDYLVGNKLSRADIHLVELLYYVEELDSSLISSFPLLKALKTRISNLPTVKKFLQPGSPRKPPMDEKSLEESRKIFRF

GST A3-3 [4] = biological target: T1, GST A3-3; conditions: read-out: IC50 Values GST A3-3
GST A1-1 [5] = biological target: T2, GST A1-1; conditions: read-out: IC50 Values GST A1-1
GST A2-2 [6] = biological target: T3, GST A2-2; conditions: read-out: IC50 Values GST A2-2

Structure (SMILES) | IC50 (GST A3-3 [1]) | IC50 (GST A1-1 [2]) | IC50 (GST A2-2 [3]) | IC50 (GST A3-3 [4]) | IC50 (GST A1-1 [5]) | IC50 (GST A2-2 [6])
C[CH2][Pb]([Cl])([CH2]C)[CH2]C [Et3PbCl] | 2300 nM | 2000 nM |  |  |  | 
C[CH2][Ge]([Cl])([CH2]C)[CH2]C [Et3GeCl] | 67000 nM | 56000 nM | 800 nM |  |  | 
CC(=O)[O][Sn]([c]1ccccc1)([c]1ccccc1)[c]1ccccc1 [Ph3SnAc] |  |  |  | 160 nM | 160 nM | 
[Cl][Pb]([c]1ccccc1)([c]1ccccc1)[c]1ccccc1 [Ph3PbCl] | 13 nM | 4.6 nM | 84 nM |  |  | 
CCC[CH2][Sn]([CH2]CCC)([CH2]CCC)[O]C(C)=O [Bu3SnAc] |  |  |  | 18 nM | 18 nM | 410 nM
[Br][Pb]([c]1ccccc1)([c]1ccccc1)[c]1ccccc1 [Ph3PbBr] | 160 nM | 8.6 nM |  |  |  | 
